# According to patent publication US20100298141A1, “SUBSTITUTED PYRIDINE N-OXIDE HERBICIDES” (E. I. DU PONT DE NEMOURS AND COMPANY, priority 2007, published 2010):
# Columns and labels:
# southern sandbur = assay: Test F preemergence test; type: in vivo, Cenchrus echinatus; details: scale 0 to 100
# Method in brief: (§1)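 Test chemicals were formulated in a non-phytotoxic solvent mixture with surfactant and applied preemergence to planted seeds or postemergence to sugarcane plants. Plants were kept in a greenhouse for 14 to 21 days, then visually evaluated against controls.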
# Surinam grass = assay: Test F preemergence test; type: in vivo, Brachiaria decumbens; details: scale 0 to 100
# Method in brief: as §1
# kochia = assay: Test F preemergence test; type: in vivo, Kochia scoparia; details: scale 0 to 100
# Method in brief: as §1
# Virginia dayflower = assay: Test F preemergence test; type: in vivo, Commelina virginica; details: scale 0 to 100
# Method in brief: as §1
# large crabgrass = assay: Test F preemergence test; type: in vivo, Digitaria sanguinalis; details: scale 0 to 100
# Method in brief: as §1
# field bindweed = assay: Test F preemergence test; type: in vivo, Convolvulus arvensis; details: scale 0 to 100
# Method in brief: as §1
# common mallow = assay: Test F preemergence test; type: in vivo, Malva sylvestris; details: scale 0 to 100
# Method in brief: as §1
# annual bluegrass = assay: Test F preemergence test; type: in vivo, Poa annua; details: scale 0 to 100
# Method in brief: as §1
# Italian ryegrass = assay: Test F preemergence test; type: in vivo, Lolium multiflorum; details: scale 0 to 100
# Method in brief: as §1
# common groundsel = assay: Test F preemergence test; type: in vivo, Senecio vulgaris; details: scale 0 to 100
# Method in brief: as §1
# common purslane = assay: Test F preemergence test; type: in vivo, Portulaca oleracea; details: scale 0 to 100
# Method in brief: as §1
# mustard = assay: Test F preemergence test; type: in vivo, Brassica nigra; details: scale 0 to 100
# Method in brief: as §1
# quackgrass = assay: Test F preemergence test; type: in vivo, Elytrigia repens; details: scale 0 to 100
# Method in brief: as §1
# guineagrass = assay: Test F preemergence test; type: in vivo, Panicum maximum; details: scale 0 to 100
# Method in brief: as §1
# barnyardgrass = assay: Test F preemergence test; type: in vivo, Echinochloa crus-galli
# Method in brief: as §1
# Russian thistle = assay: Test C pre-/postemergence test; type: in vivo, Salsola kali; details: for Plant response rating, Russian Thistle: 31 g ai/ha, scale 0 to 100 (0 no effect, 100 complete control)
# Method in brief: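 Seeds were planted and treated preemergence with test chemical in a non-phytotoxic solvent mixture containing surfactant. Postemergence applications of the same formulation went onto plants 2 to 18 cm tall (1- to 4-leaf stage). A dash marks no test result.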
# dallisgrass = assay: Test F preemergence test; type: in vivo, Paspalum dilatatum; details: scale 0 to 100
# Method in brief: as §1
# [1] = 62 g ai/ha, Preemergence, scale 0 to 100
# [2] = 125 g ai/ha, preemergence, scale 0 to 100
# [3] = Preemergence, 31 g ai/ha, scale 0 to 100
smiles,measurement,setting,value
Cc1cc[n+]([O-])c(S(=O)(=O)Cc2c(C(F)(F)F)nn(C)c2Cl)c1 [Compound 19],Sandbur plant response rating,"southern sandbur; 62 g ai/ha, Preemergence",90
same,Sandbur plant response rating,"southern sandbur; 125 g ai/ha, preemergence",100
same,"Plant response rating, Sandbur","southern sandbur; Preemergence, 31 g ai/ha",60
same,Surinam Grass plant response rating,"Surinam grass; 62 g ai/ha, Preemergence",75
same,Surinam Grass plant response rating,"Surinam grass; 125 g ai/ha, preemergence",90
same,"Plant response rating, Surinam Grass","Surinam grass; Preemergence, 31 g ai/ha",30
same,Kochia plant response rating,"kochia; 62 g ai/ha, Preemergence",0
same,Kochia plant response rating,"kochia; 125 g ai/ha, preemergence",100
same,"Plant response rating, Kochia","kochia; Preemergence, 16 g ai/ha",0
same,"Plant response rating, Kochia","kochia; Preemergence, 31 g ai/ha",0
same,Dayflower plant response rating,"Virginia dayflower; 62 g ai/ha, Preemergence",30
same,Dayflower plant response rating,"Virginia dayflower; 125 g ai/ha, preemergence",90
same,"Plant response rating, Dayflower","Virginia dayflower; Preemergence, 16 g ai/ha",0
same,"Plant response rating, Dayflower","Virginia dayflower; Preemergence, 31 g ai/ha",0
same,"Crabgrass, Large plant response rating","large crabgrass; 62 g ai/ha, Preemergence",80
same,"Crabgrass, Large plant response rating","large crabgrass; 125 g ai/ha, preemergence",95
same,"Plant response rating, Crabgrass, Large","large crabgrass; Preemergence, 16 g ai/ha",35
same,"Plant response rating, Crabgrass, Large","large crabgrass; Preemergence, 31 g ai/ha",50
same,Field Bindweed plant response rating,"field bindweed; 62 g ai/ha, Preemergence",0
same,Field Bindweed plant response rating,"field bindweed; 125 g ai/ha, preemergence",15
same,"Plant response rating, Field Bindweed","field bindweed; Preemergence, 16 g ai/ha",0
same,"Plant response rating, Field Bindweed","field bindweed; Preemergence, 31 g ai/ha",0
same,Mallow plant response rating,"common mallow; 62 g ai/ha, Preemergence",0
same,Mallow plant response rating,"common mallow; 125 g ai/ha, preemergence",40
same,"Plant response rating, Mallow","common mallow; Preemergence, 16 g ai/ha",0
same,"Plant response rating, Mallow","common mallow; Preemergence, 31 g ai/ha",0
same,Bluegrass plant response rating,"annual bluegrass; 62 g ai/ha, Preemergence",0
same,Bluegrass plant response rating,"annual bluegrass; 125 g ai/ha, preemergence",95
same,"Plant response rating, Bluegrass","annual bluegrass; Preemergence, 16 g ai/ha",0
same,"Plant response rating, Bluegrass","annual bluegrass; Preemergence, 31 g ai/ha",0
same,"Ryegrass, Italian plant response rating","Italian ryegrass; 62 g ai/ha, Preemergence",50
same,"Ryegrass, Italian plant response rating","Italian ryegrass; 125 g ai/ha, preemergence",65
same,"Plant response rating, Ryegrass, Italian","Italian ryegrass; Preemergence, 16 g ai/ha",0
same,"Plant response rating, Ryegrass, Italian","Italian ryegrass; Preemergence, 31 g ai/ha",10
same,Groundsel plant response rating,"common groundsel; 62 g ai/ha, Preemergence",15
same,Groundsel plant response rating,"common groundsel; 125 g ai/ha, preemergence",70
same,"Plant response rating, Groundsel","common groundsel; Preemergence, 16 g ai/ha",0
same,"Plant response rating, Groundsel","common groundsel; Preemergence, 31 g ai/ha",0
same,Purslane plant response rating,"common purslane; 62 g ai/ha, Preemergence",0
same,Purslane plant response rating,"common purslane; 125 g ai/ha, preemergence",0
same,"Plant response rating, Purslane","common purslane; Preemergence, 16 g ai/ha",0
same,"Plant response rating, Purslane","common purslane; Preemergence, 31 g ai/ha",0
same,Black Mustard plant response rating,"mustard; 62 g ai/ha, Preemergence",100
same,Black Mustard plant response rating,"mustard; 125 g ai/ha, preemergence",100
same,"Plant response rating, Black Mustard","mustard; Preemergence, 16 g ai/ha",0
same,"Plant response rating, Black Mustard","mustard; Preemergence, 31 g ai/ha",20
same,Quackgrass plant response rating,"quackgrass; 62 g ai/ha, Preemergence",40
same,Quackgrass plant response rating,"quackgrass; 125 g ai/ha, preemergence",60
same,"Plant response rating, Quackgrass","quackgrass; Preemergence, 16 g ai/ha",0
same,"Plant response rating, Quackgrass","quackgrass; Preemergence, 31 g ai/ha",0
same,Guineagrass plant response rating,"guineagrass; 62 g ai/ha, Preemergence",100
same,Guineagrass plant response rating,"guineagrass; 125 g ai/ha, preemergence",100
same,"Plant response rating, Guineagrass","guineagrass; Preemergence, 16 g ai/ha",50
same,"Plant response rating, Guineagrass","guineagrass; Preemergence, 31 g ai/ha",80
same,Barnyardgrass plant response rating,barnyardgrass; [1],90
same,Barnyardgrass plant response rating,barnyardgrass; [2],98
same,"Plant response rating, Barnyardgrass","barnyardgrass; Preemergence, 16 g ai/ha, scale 0 to 100",70
same,"Plant response rating, Barnyardgrass",barnyardgrass; [3],80
same,Russian Thistle plant response rating,Russian thistle; [1],100
same,"Plant response rating, Russian Thistle",Russian thistle; Preemergence,100
same,Dallisgrass plant response rating,"dallisgrass; 62 g ai/ha, Preemergence",65
same,Dallisgrass plant response rating,"dallisgrass; 125 g ai/ha, preemergence",90
same,"Plant response rating, Dallisgrass","dallisgrass; Preemergence, 16 g ai/ha",0
same,"Plant response rating, Dallisgrass","dallisgrass; Preemergence, 31 g ai/ha",20
Cn1nc(C(F)(F)F)c(C[S+]([O-])c2ccc(Cl)c[n+]2[O-])c1OCC(F)(F)F (racemic) [Compound 62],"Plant response rating, Sandbur","southern sandbur; 16 g ai/ha, preemergence",25
same,Sandbur plant response rating,"southern sandbur; 125 g ai/ha, preemergence",98
same,"Plant response rating, Sandbur","southern sandbur; Preemergence, 62 g ai/ha",98
same,"Plant response rating, Sandbur","southern sandbur; Preemergence, 31 g ai/ha",75
same,"Plant response rating, Surinam Grass","Surinam grass; 16 g ai/ha, preemergence",60
same,Surinam Grass plant response rating,"Surinam grass; 125 g ai/ha, preemergence",100
same,"Plant response rating, Surinam Grass","Surinam grass; Preemergence, 62 g ai/ha",100
same,"Plant response rating, Surinam Grass","Surinam grass; Preemergence, 31 g ai/ha",95
same,"Plant response rating, Kochia","kochia; 16 g ai/ha, preemergence",0
same,Kochia plant response rating,"kochia; 62 g ai/ha, Preemergence",15
same,Kochia plant response rating,"kochia; 125 g ai/ha, preemergence",100
same,"Plant response rating, Kochia","kochia; Preemergence, 31 g ai/ha",0
same,"Plant response rating, Dayflower","Virginia dayflower; 16 g ai/ha, preemergence",0
same,"Plant response rating, Crabgrass, Large","large crabgrass; 16 g ai/ha, preemergence",15
same,"Crabgrass, Large plant response rating","large crabgrass; 62 g ai/ha, Preemergence",90
same,"Crabgrass, Large plant response rating","large crabgrass; 125 g ai/ha, preemergence",98
same,"Plant response rating, Crabgrass, Large","large crabgrass; Preemergence, 31 g ai/ha",60
same,"Plant response rating, Field Bindweed","field bindweed; 16 g ai/ha, preemergence",0
same,Field Bindweed plant response rating,"field bindweed; 62 g ai/ha, Preemergence",75
same,Field Bindweed plant response rating,"field bindweed; 125 g ai/ha, preemergence",75
same,"Plant response rating, Field Bindweed","field bindweed; Preemergence, 31 g ai/ha",75
same,"Plant response rating, Mallow","common mallow; 16 g ai/ha, preemergence",0
same,Mallow plant response rating,"common mallow; 62 g ai/ha, Preemergence",98
same,Mallow plant response rating,"common mallow; 125 g ai/ha, preemergence",100
same,"Plant response rating, Mallow","common mallow; Preemergence, 31 g ai/ha",80
same,"Plant response rating, Bluegrass","annual bluegrass; 16 g ai/ha, preemergence",20
same,Bluegrass plant response rating,"annual bluegrass; 62 g ai/ha, Preemergence",80
same,Bluegrass plant response rating,"annual bluegrass; 125 g ai/ha, preemergence",100
same,"Plant response rating, Bluegrass","annual bluegrass; Preemergence, 31 g ai/ha",70
same,"Plant response rating, Ryegrass, Italian","Italian ryegrass; 16 g ai/ha, preemergence",50
same,"Ryegrass, Italian plant response rating","Italian ryegrass; 125 g ai/ha, preemergence",100
same,"Plant response rating, Ryegrass, Italian","Italian ryegrass; Preemergence, 62 g ai/ha",100
same,"Plant response rating, Ryegrass, Italian","Italian ryegrass; Preemergence, 31 g ai/ha",98
same,"Plant response rating, Groundsel","common groundsel; 16 g ai/ha, preemergence",0
same,Groundsel plant response rating,"common groundsel; 62 g ai/ha, Preemergence",80
same,Groundsel plant response rating,"common groundsel; 125 g ai/ha, preemergence",90
same,"Plant response rating, Groundsel","common groundsel; Preemergence, 31 g ai/ha",70
same,"Plant response rating, Purslane","common purslane; 16 g ai/ha, preemergence",15
same,Purslane plant response rating,"common purslane; 62 g ai/ha, Preemergence",60
same,Purslane plant response rating,"common purslane; 125 g ai/ha, preemergence",75
same,"Plant response rating, Purslane","common purslane; Preemergence, 31 g ai/ha",40
same,"Plant response rating, Black Mustard","mustard; 16 g ai/ha, preemergence",20
same,Black Mustard plant response rating,"mustard; 62 g ai/ha, Preemergence",90
same,Black Mustard plant response rating,"mustard; 125 g ai/ha, preemergence",98
same,"Plant response rating, Black Mustard","mustard; Preemergence, 31 g ai/ha",0
same,"Plant response rating, Quackgrass","quackgrass; 16 g ai/ha, preemergence",40
same,Quackgrass plant response rating,"quackgrass; 62 g ai/ha, Preemergence",75
same,Quackgrass plant response rating,"quackgrass; 125 g ai/ha, preemergence",98
same,"Plant response rating, Quackgrass","quackgrass; Preemergence, 31 g ai/ha",75
same,"Plant response rating, Guineagrass","guineagrass; 16 g ai/ha, preemergence",70
same,Guineagrass plant response rating,"guineagrass; 62 g ai/ha, Preemergence",100
same,Guineagrass plant response rating,"guineagrass; 125 g ai/ha, preemergence",100
same,"Plant response rating, Guineagrass","guineagrass; Preemergence, 31 g ai/ha",80
same,"Plant response rating, Barnyardgrass","barnyardgrass; 16 g ai/ha, preemergence, scale 0 to 100 (0 no effect, 100 complete control)",30
same,Barnyardgrass plant response rating,barnyardgrass; [1],100
same,Barnyardgrass plant response rating,barnyardgrass; [2],100
same,"Plant response rating, Barnyardgrass",barnyardgrass; [3],75
same,Russian Thistle plant response rating,Russian thistle; [1],100
same,Russian Thistle plant response rating,"Russian thistle; 125 g ai/ha, preemergence, scale 0 (no effect) to 100 (complete control)",100
same,"Plant response rating, Russian Thistle",Russian thistle; Preemergence,100
same,Russian Thistle plant response rating,"Russian thistle; preemergence, 250 g ai/ha, scale 0 (no effect) to 100 (complete control)",100
same,"Plant response rating, Dallisgrass","dallisgrass; 16 g ai/ha, preemergence",0
same,Dallisgrass plant response rating,"dallisgrass; 62 g ai/ha, Preemergence",98
same,Dallisgrass plant response rating,"dallisgrass; 125 g ai/ha, preemergence",98
same,"Plant response rating, Dallisgrass","dallisgrass; Preemergence, 31 g ai/ha",60
